Results reported in US20040110745A1, “Therapeutic chroman compounds” (priority 2001, published 2004).

Experiments:
guinea pigs = assay: learned helplessness assay for antidepressant/antianxiety activity; type: in vivo; conditions: guinea pig
Description: The utility of the compounds for example to treat depression may be shown via a learned helplessness test in guinea pigs, which is used extensively as correlative to antidepressant activity in humans. The learned helplessness test may be carried out as follows: Seventy male Hartley guinea pigs, each weighing about 350-425 gm are fed ad lib, and are housed under a 12-hour light/dark cycle. The procedure consists of two phases: The induction phase and the avoidance training phase. In the induction phase, subjects are placed into standard shuttle cages (20 L×16 W×21 centimeters H) which are fitted with a grid floor. Electrical stimulation (1.25 mA, 10 sec duration) is delivered to the floor of the cage every 90-sec during 1 hour daily sessions. Subjects have no opportunity to escape or to avoid shocks. Induction is conducted for 2 consecutive days.
In avoidance training, testing is also conducted in the shuttle cages, except that the subjects are not returned to the same chamber in which induction had occurred. Additionally, all cages are fitted with a partition with an arch in the center of the cage, through which animals can pass between the left and right halves of the cage. The procedure employed is a standard shuttle avoidance procedure in which a compound, conditioned stimulus (a 10-sec presentation of a tone and turning on of a lamp on the side of the cage that the guinea pig was occupying) serves to indicate presentation of electrical current to the floor of the cage. Shock is presented for a 5 sec period, 5 sec after initiation of the conditioned stimulus. Entry into the opposite side of the shuttle cage via the arched partition prior to shock onset results in the end of the trial (avoidance response). If shock is delivered, entry into the opposite side of the cage results in termination of the shock and CS (escape). Reversal of learned helplessness in the induction subjects correlates to antidepressant activity of the test compound.
Avoidance training, 45-min in duration, is conducted on 2 consecutive days, beginning 48 hr after the final induction session. Seventy subjects are assigned to 1 of 6 groups of 11-12 animals. The groups are as follows:
Groups 2-6 are given induction and avoidance training sessions. Injections are administered immediately following induction sessions and 1 hour prior to avoidance training sessions. A second injection is administered 7-8 hours following the first injection, for a total of 9 injections administered over 5 days. No injections are administered following the final avoidance training session.
Compounds of the present invention may be administered in a volume of 1 mL/kg bwt. Imipramine is dissolved in DI water. The compounds are dissolved in DI water, to which was added a few drops of lactic acid (pH 5.5). […]

| SMILES | melting point | activity in the learned helplessness assay (guinea pigs) |
| --- | --- | --- |
| CN1CCN(c2cccc3c2OC(C(=O)Nc2ccc(N4CCOCC4)cc2)CC3)CC1 (racemic) [Example 75, racemic-8-(4-Methyl-piperazin-1-yl)-chroman-2-carboxylic acid (4-morpholin-4-yl-phenyl)-amide] | 215 to 216 °C |  |
| CN1CCN(c2cccc3c2OC(C(=O)Nc2ccc(N4CCOCC4)cc2)CC3=O)CC1 (racemic) [Example 78, racemic-8-(4-methyl-piperazin-1-yl)-4-oxo-chroman-2-carboxylic acid (4-morpholin-4-yl-phenyl)-amide] | 215 to 216 °C |  |
| CN1CCN(c2cccc3c2OC(C(=O)Nc2ccc(N4CCOCC4)cc2)CC3=O)CC1 (single isomer, unassigned) [Example 79, 8-(4-Methyl-piperazin-1-yl)-4-oxo-chroman-2-carboxylic acid (4-morpholin-4-yl-phenyl)-amide] | 216 °C (dec.) |  |
| CN1CCN(c2cccc3c2OC(C(=O)Nc2ccc(N4CCOCC4)cc2)CC3=O)CC1 (single isomer, unassigned) [Example 80, 8-(4-Methyl-piperazin-1-yl)-4-oxo-chroman-2-carboxylic acid (4-morpholin-4-yl-phenyl)-amide] | 215 °C (dec.) |  |
| CN1CCN(c2cccc3c2OC(C(=O)Nc2ccc(N4CCOCC4)cc2)CC3)CC1 (single isomer, unassigned; (+)) [Example 76, (+)-8-(4Methyl-piperazin-1-yl)-chroman-2-carboxylic acid (4-morpholin-4-yl-phenyl)-amide] | 206 to 207 °C |  |
| CN1CCN(c2cccc3c2OC(C(=O)Nc2ccc(N4CCOCC4)cc2)CC3)CC1 (single isomer, unassigned; (-)) [Example 77, (−)-8-(4-Methyl-piperazin-1-yl)-chroman-2-carboxylic acid (4-morpholin-4-yl-phenyl)-amide] | 205.5 to 207 °C |  |
| CN1CCN(c2cccc3c(=O)cc(C(=O)Nc4ccc(N5CCOCC5)cc4)oc23)CC1 [Example 1, 8-(4-methyl-1-piperazinyl)-N-[4-(4-morpholinyl)phenyl]-4-Oxo-4H-chromene-2-carboxamide] | 217 to 218 °C (dec.) |  |
| CN1CCN(c2cccc3c(=O)cc(C(=O)Nc4ccc(N5CCOCC5)cc4O)oc23)CC1 [Example 22, 8-(4-Methyl-piperazin-1-yl)-4-oxo-4H-chromene-2-carboxylic acid (2-hydroxy-4-morpholin-4-yl-phenyl)-amide] | 248.4 to 249.6 °C |  |
| CN1CCN(c2cccc3c(=O)cc(C(=O)N(C)c4ccc(N5CCOCC5)cc4)oc23)CC1 [Example 25, 8-(4-Methylpiperazin-1-yl)-4-oxo-4H-chromene-2-carboxylic acid methyl-(4-morpholin-4-yl-phenyl)amide] | 245 to 246.8 °C |  |
| COc1cc(N2CCN(C)CC2)c2oc(C(=O)Nc3ccc(N4CCOCC4)cc3)cc(=O)c2c1 [Example 31, 6-Methoxy-8-(4-methyl-piperazin-1-yl)-4-oxo-4H-chromene-2-carboxylic acid (4-morpholin-4-yl-phenyl)-amide] | 234 to 236 °C | demonstrate activity |
| CCC(=O)N1CCN(c2ccc(NC(=O)c3cc(=O)c4cc(OC)cc(N5CCN(C)CC5)c4o3)cc2)CC1 [Example 44, 6-Methoxy-8-(4-methyl-piperazin-1-yl)-4-oxo-4H-chromene-2-carboxylic acid [4-(4-propionyl-piperazin-1-yl)-phenyl]-amide] |  | demonstrate activity |
| COc1cc(N2CCN(C)CC2)c2oc(C(=O)Nc3ccc(N4CCN(C(=O)CCO)CC4)cc3)cc(=O)c2c1 [Example 68, 6-Methoxy-8-(4-methyl-piperazin-1-yl)-4-oxo-4H-chromene-2-carboxylic acid {4-[4-(3-hydroxy-propanoyl)-piperazin-1-yl]-phenyl}-amide] | 195 to 197 °C |  |
| CCS(=O)(=O)N1CCN(c2ccc(NC(=O)c3cc(=O)c4cc(F)cc(N5CCN(C)CC5)c4o3)cc2)CC1 [Example 71, 6-Fluoro-8-(4-methyl-piperazin-1-yl)-4-oxo-4H-chromene-2-carboxylic acid [4-(4-ethane sulfonyl-piperazin-1-yl)-phenyl]-amide] | 233 to 234 °C | demonstrate activity |
| CCC(=O)N1CCN(c2ccc(NC(=O)c3cc(=O)c4cc(F)cc(N5CCN(C)CC5)c4o3)cc2)CC1 [Example 72, 6-flouro-8-(4-methyl-piperazin-1-yl)-4-oxo-4H-chromene-2-carboxylic acid [4-(4-propionyl-piperazin-1-yl)-phenyl]-amide] |  | demonstrate activity |
| CN1CCN(c2cc(F)cc3c(=O)cc(C(=O)Nc4ccc(N5CCN(C(=O)CCO)CC5)cc4)oc23)CC1 [Example 73, 6-Fluoro-8-(4-methyl-piperazin-1-yl)-4-oxo-4H-chromene-2-carboxylic acid {4-[4-(3-hydroxy-propanoyl)-piperazin-1-yl]-phenyl}-amide] | 195 to 199 °C |  |
| CCNC(=O)N1CCN(c2ccc(NC(=O)c3cc(=O)c4cc(F)cc(N5CCN(C)CC5)c4o3)cc2)CC1 [Example 81, 4-[4-({1-[6-Fluoro-8-(4-methyl-piperazin-1-yl)-4-oxo-4H-chromen-2-yl]-methanoyl}-amino)-phenyl]-piperazine-1-carboxylic acid Ethylamide] | 236 to 238 °C |  |
